Test results reported in paper PMC7887755, “Structure–Activity Relationships of Pyrazolo[1,5-a]pyrimidin-7(4H)-ones as Antitubercular Agents” (ACS Infectious Diseases, 2021).
Converted amounts (≈) assume the structure as drawn. “And” between values parts separate entries of the source, which are not always exact repeats. Equal values may be shown once. Read-outs that look alike come from different tables or passages of the source.

Columns and labels:
[1] = test system: cell wall responsive iniBAC promoter (piniB-LUX reporter strain); type: cell-based, Mycobacterium tuberculosis
[2] = test system: Mtb H37Rv; assay: microbe, parasite or virus in culture; type: cell-based, Mycobacterium tuberculosis
[3] = test system: HepG2 cells; settings: 24 h
[4] = in vitro; settings: human, 24 h
[5] = test system: Mtb H37Rv; assay: MIC under iron-depleted (DFO) or iron-replete (FeCl3) conditions; type: cell-based, Mycobacterium tuberculosis
[6] = test system: Mtb H37Rv WT; assay: microbe, parasite or virus in culture; type: cell-based; settings: Mycobacterium tuberculosis
[7] = test system: Mtb strain H37Rv; assay: MIC against Mtb H37Rv under various media/carbon sources; type: cell-based; settings: Mycobacterium tuberculosis
[8] = test system: DNA damage responsive recA and radA reporters; type: cell-based, Mycobacterium tuberculosis
[9] = Mycobacterium tuberculosis, H37RV, read-out: MIC in 7H9 ADC
[10] = Mycobacterium tuberculosis, H37RV, read-out: MIC in 7H9 GCas
[11] = read-out: Cytotoxicity (IC50) Galactose, HepG2 cells in DMEM/10% FBS with galactose
[12] = read-out: Cytotoxicity (IC50) Glucose, HepG2 cells in DMEM/10% FBS supplemented with glucose
[13] = Cytotoxicity (IC50) Galactose, HepG2 cells in DMEM/10% FBS with galactose
[14] = Cytotoxicity (IC50) Glucose, HepG2 cells in DMEM/10% FBS supplemented with glucose

## CC(C)=CCC/C(C)=C/CNCCNC1C2CC3CC(C2)CC1C3 (stereo not drawn) [SQ109]
[1]
  reporter gene assay cell wall: yes

## O=c1[nH]n2c(=O)cc(-c3ccccc3)[nH]c2c1-c1ccccc1 [Compound P3, 3,5-Diphenylpyrazolo[1,5-a]pyrimidine-2,7(1H,4H)-dione]
[2]; [9]
  MIC: > 100 µM
[2]; [10]
  MIC: > 100 µM

## Antimycin [reference compound]
[3]; [11]
  IC50: 3.4 µM
[3]; [12]
  IC50: 69.7 µM

## O=c1cc(-c2ccc(F)c(F)c2)[nH]c2c(-c3ccccc3)c(C(F)(F)F)nn12 [Compound P27, 5-(3,4-Difluorophenyl)-3-phenyl-2-(trifluoromethyl)pyrazolo[1,5-a]pyrimidin-7(4H)-one]
[2]; [9]
  MIC: > 100 µM
[2]; [10]
  MIC: 100 µM (≈ 39.1 µg/mL)
[4]; [13]
  IC50: > 100 µM
[4]; [14]
  IC50: > 100 µM

## Nc1nn2c(=O)cc(-c3ccccc3)[nH]c2c1-c1ccccc1 [Compound P4, 2-Amino-3,5-diphenylpyrazolo[1,5-a]pyrimidin-7(4H)-one]
[2]; [9]
  MIC: 28.1 µM (≈ 8.5 µg/mL)
[2]; [10]
  MIC: 25 µM (≈ 7.56 µg/mL)
[2]; read-out: MIC in 7H9 GCas
  MIC: 25 µM (≈ 7.56 µg/mL)

## Cc1nn2c(=O)c(C(F)(F)F)c(-c3ccccc3)[nH]c2c1-c1ccccc1 [Compound P7, 2-Methyl-3,5-diphenyl-6-(trifluoromethyl)pyrazolo[1,5-a]pyrimidin-7(4H)-one]
[2]; [9]
  MIC: 12.5 µM (≈ 4.62 µg/mL)
[2]; [10]
  MIC: 3.12 µM (≈ 1.15 µg/mL)

## CC/C(=C(\c1ccccc1)c1ccc(OCCN(C)C)cc1)c1ccccc1 [Tamoxifen, reference compound]
[4]; [13]
  IC50: 5.93 µM
[4]; [14]
  IC50: 4.18 µM

## CC(C)c1nn2c(=O)cc(-c3ccccc3)[nH]c2c1-c1ccccc1 [Compound P23, 2-Isopropyl-3,5-diphenylpyrazolo[1,5-a]pyrimidin-7(4H)-one]
[2]; [9]
  MIC: > 100 µM
[2]; [10]
  MIC: 12.5 µM (≈ 4.12 µg/mL)
[4]; [13]
  IC50: 86.2 µM
[4]; [14]
  IC50: > 100 µM

## 2-Methyl-3-phenyl-5-(pyrazin-2-yl)pyrazolo[1,5-a]pyrimidin-7(4H)-one [Compound P15]
[2]; read-out: MIC in 7H9 ADC
  MIC: 50.0 µM and 50 µM
[2]; read-out: MIC in 7H9 GCas
  MIC: 12.5 µM
[3]; [11]
  IC50: > 100 µM
[3]; [12]
  IC50: > 100 µM

## COc1cc(-c2ccccc2)nc2c(-c3ccccc3)c(C)nn12 [Compound P1, 7-Methoxy-2-methyl-3,5-diphenylpyrazolo[1,5-a]pyrimidine]
[2]; [9]
  MIC: 100 µM (≈ 31.5 µg/mL)
[2]; [10]
  MIC: > 100 µM

## [Cl][Fe]([Cl])[Cl] [FeCl3]
[5]; MIC of the iron-modulating additive itself
  MIC: 500 µM

## 5-Isobutyl-2-methyl-3-phenylpyrazolo[1,5-a]pyrimidin-7(4H)-one [Compound P12]
[2]; read-out: MIC in 7H9 ADC
  MIC: 100 µM
[2]; read-out: MIC in 7H9 GCas
  MIC: 12.5 µM
[3]; [11]
  IC50: > 100 µM
[3]; [12]
  IC50: > 100 µM

## O=c1cc(-c2ccc(F)c(F)c2)[nH]c2c(-c3ccc(Cl)cc3)cnn12 [Compound P26, 3-(4-Chlorophenyl)-5-(3,4-difluorophenyl)pyrazolo[1,5-a]pyrimidin-7(4H)-one]
[2]
  potency relative to P25: 4 fold
[2]; [9]
  MIC: 12.5 µM (≈ 4.47 µg/mL)
[2]; [10]
  MIC: 12.5 µM (≈ 4.47 µg/mL)
[4]; [13]
  IC50: 18.5 µM
[4]; [14]
  IC50: 57.2 µM

## O=c1cc(CC2CCCCC2)[nH]c2c(-c3ccc(Cl)cc3)cnn12 [Compound 2, 3-(4-Chlorophenyl)-5-(cyclohexylmethyl)pyrazolo[1,5-a]pyrimidin-7(4H)-one, reference compound]
[1]
  reporter gene assay cell wall: no
[6]
  MIC: 0.39 µM (≈ 0.133 µg/mL)
[5]
  increase in potency under iron-depleted conditions (MIC ratio): greater efficacy under iron-limited conditions
[7]; GAST/Fe, read-out: MIC GAST
  MIC: 19 µM (≈ 6.49 µg/mL)
[7]; pH 6, read-out: MIC nitrate/butyrate
  MIC: 6.25 µM (≈ 2.14 µg/mL)
[7]; read-out: MIC 7H9
  MIC: 19 µM (≈ 6.49 µg/mL)
[7]; read-out: MIC Chol
  MIC: 12.5 µM (≈ 4.27 µg/mL)
[7]; read-out: MIC GBSA/DBSA
  MIC: 4.7 µM (≈ 1.61 µg/mL)
[2]; [9]
  MIC: 9.38 µM (≈ 3.21 µg/mL)
[2]; [10]
  MIC: 0.78 µM (≈ 0.267 µg/mL)
[8]
  reporter gene assay DNA damage: no

## Cc1nn2c(=O)nc(-c3ccccc3)[nH]c2c1-c1ccccc1 [Compound P5, 7-Methyl-2,8-diphenylpyrazolo[1,5-a][1,3,5]triazin-4(1H)-one]
[2]; [9]
  MIC: > 100 µM
[2]; [10]
  MIC: 50 µM (≈ 15.1 µg/mL)
[2]; read-out: MIC in 7H9 GCas
  MIC: 50 µM (≈ 15.1 µg/mL)

## NNC(=O)c1ccncc1 [INH, isoniazid, reference compound]
[6]
  MIC: 0.04 µM (≈ 0.00549 µg/mL)
[7]; GAST/Fe, read-out: MIC GAST
  MIC: 0.1 µM (≈ 0.0137 µg/mL)
[7]; read-out: MIC 7H9
  MIC: 0.39 µM (≈ 0.0535 µg/mL)
[7]; read-out: MIC Chol
  MIC: 0.2 µM (≈ 0.0274 µg/mL)
[7]; read-out: MIC GBSA/DBSA
  MIC: 0.3 µM (≈ 0.0411 µg/mL)
[2]; [9]
  MIC: 0.23 µM (≈ 0.0315 µg/mL)
[2]; [10]
  MIC: 0.16 µM (≈ 0.0219 µg/mL)
